The target of this experiment is T1, Estrogen receptor (Homo sapiens) (UniProt P03372).
T1 sequence (whole entry): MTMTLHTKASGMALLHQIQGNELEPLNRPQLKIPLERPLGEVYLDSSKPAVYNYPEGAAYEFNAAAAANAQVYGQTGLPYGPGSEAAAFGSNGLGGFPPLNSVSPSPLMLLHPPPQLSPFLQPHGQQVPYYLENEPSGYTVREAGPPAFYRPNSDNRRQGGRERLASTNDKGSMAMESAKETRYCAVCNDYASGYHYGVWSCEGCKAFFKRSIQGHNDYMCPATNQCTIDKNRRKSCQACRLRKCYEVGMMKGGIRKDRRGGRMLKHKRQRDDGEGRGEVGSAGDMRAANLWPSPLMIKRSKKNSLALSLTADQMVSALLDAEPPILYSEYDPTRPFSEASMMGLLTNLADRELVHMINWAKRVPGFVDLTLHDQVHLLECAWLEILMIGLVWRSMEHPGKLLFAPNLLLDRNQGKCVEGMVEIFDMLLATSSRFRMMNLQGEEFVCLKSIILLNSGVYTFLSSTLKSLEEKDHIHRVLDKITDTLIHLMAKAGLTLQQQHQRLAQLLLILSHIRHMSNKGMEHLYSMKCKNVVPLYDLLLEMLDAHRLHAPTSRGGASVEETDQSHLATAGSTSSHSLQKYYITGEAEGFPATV
In words: Displacement of [3H]-estradiol from human ERalpha LBD expressed in Escherichia coli assessed as relative binding affinity relative to estradiol. Background: Loss of bound radioactivity is the signal in a displacement assay; it reports binding, not function.
For the compound `CCc1c(-c2ccc(O)cc2)nn(-c2ccc(O)cc2)c1-c1ccc(O)cc1`, the RBA is 36%.
Turning to `Oc1ccc(-c2noc(-c3ccc(O)cc3)c2/C=C/c2ccc(C(F)(F)F)cc2)cc1`, the RBA amounted to 5.3%.
For the compound `Oc1ccc(/C=C/c2c(-c3ccc(O)cc3)noc2-c2ccc(O)cc2)cc1`, the RBA came to 16.4%.
Under `Oc1ccc(-c2noc(-c3ccc(O)cc3)c2/C=C/c2cccc(O)c2)cc1` stands 8.7%.
For `CC(C)(C)/C=C/c1c(-c2ccc(O)cc2)noc1-c1ccc(O)cc1` the value was 4.3%; for `CCCCCCC/C=C/c1c(-c2ccc(O)cc2)noc1-c1ccc(O)cc1`, 1.3%.
In the case of `Oc1ccc(-c2noc(-c3ccc(O)cc3)c2-c2ccc(O)cc2)cc1`, the RBA was 30%.
Take `Cc1ccc(/C=C/c2c(-c3ccc(O)cc3)noc2-c2ccc(O)cc2)cc1`: the RBA was found to be 0.6%.
Regarding `CCCCC/C=C/c1c(-c2ccc(O)cc2)noc1-c1ccc(O)cc1`, the RBA stood at 1.8%.
Turning to `Oc1ccc(-c2noc(-c3ccc(O)cc3)c2/C=C/c2ccc(F)cc2)cc1`, the RBA turned out to be 3.1%.
Consider `CCCCCC/C=C/c1c(-c2ccc(O)cc2)noc1-c1ccc(O)cc1`, for which the RBA came to 2.5%.
For `Oc1ccc(-c2noc(-c3ccc(O)cc3)c2/C=C/c2ccccc2)cc1`, the RBA worked out at 3.5%.
As for `Oc1ccc(-c2noc(-c3ccc(O)cc3)c2/C=C/c2ccc(Cl)cc2)cc1`, the RBA amounted to 0.8%.
As to `Oc1ccc(-c2noc(-c3ccc(O)cc3)c2/C=C/c2cccc(C(F)(F)F)c2)cc1`, the RBA was 1.5%.
`Oc1ccc(-c2noc(-c3ccc(O)cc3)c2/C=C\c2ccccc2)cc1`: the RBA was 8.7%.

For the origin of these results see ChEMBL document CHEMBL2069200, “Synthesis and evaluation of 4-(substituted styryl/alkenyl)-3,5-bis(4-hydroxyphenyl)-isoxazoles as ligands for the estrogen receptor” (Bioorg Med Chem Lett, 2012).
